From ChEMBL document CHEMBL3112456, “Dual inhibition of HCV and HIV by ring-expanded nucleosides containing the 5:7-fused imidazo[4,5-e][1,3]diazepine ring system. In vitro results and implications” (Bioorg Med Chem Lett, 2014)
Converted amounts (≈) assume the structure as drawn. The source made the active and inactive calls. The rule behind the calls is not given here.

Tests used:
[1] = tested on: Huh-7; experiment: Cytotoxicity against human HuH7 cells assessed as beta-actin levels relative to control; assay type: cell-based
[2] = Selectivity index, ratio of beta-actin level in human HuH7 cells to viral RNA level in HCV infected in human Huh7 cells; design: species or system Huh-7
[3] = tested on: Hepatitis C virus; experiment: Antiviral activity against HCV infected in human Huh7 cells assessed as reduction in RNA level by luciferase reporter gene assay relative to control; assay type: functional, Hepacivirus hominis, Huh-7; design: scale not given: the % may be the effect or the level left
[4] = tested on: Hepacivirus hominis; experiment: Inhibition of helicase activity of HCV NTPase/helicase using radio-labelled double-stranded DNA as substrate up to 300 ug/ml after 30 mins
[5] = tested on: Hepacivirus hominis; experiment: Inhibition of helicase activity of HCV NTPase/helicase using radio-labelled double-stranded RNA as substrate up to 300 ug/ml after 30 mins
[6] = tested on: Human immunodeficiency virus; experiment: Antiviral activity against HIV; assay type: functional, organism-based
[7] = Cytotoxicity against human BM4-5 cells after 5 days by Neutral Red dye assay; assay type: cell-based; settings: bm4-5, 120 h
[8] = tested on: Hepatitis C virus; experiment: Antiviral activity against HCV genotype 1b infected in human BM4-5 cells reduction in RNA level after 5 days by luciferase reporter gene assay relative to control; assay type: functional, organism-based, Hepacivirus hominis; settings: BM4-5, 120 h
[9] = tested on: Hepacivirus hominis; experiment: Inhibition of NTPase activity of HCV NTPase/helicase using 1 x 10^-5 M gamma-[32P]ATP as substrate up to 0.7 mM after 30 mins
[10] = tested on: Hepacivirus hominis; experiment: Inhibition of NTPase activity of HCV NTPase/helicase using 105 microM gamma-[32P]ATP as substrate up to 0.7 mM after 30 mins
[11] = tested on: Hepacivirus hominis; experiment: Inhibition of helicase activity of HCV NTPase/helicase using radio-labelled double-stranded RNA as substrate after 30 mins
[12] = Inhibition of helicase activity of HCV NTPase/helicase using radio-labelled double-stranded DNA as substrate after 30 mins; design: species or system Hepacivirus hominis

With `NC(=O)c1ncn([C@@H]2O[C@H](CO)[C@@H](O)[C@H]2O)n1` [RIBAVIRIN] the Activity [1] was 12%, the “Selectivity Index” value [2] was 0.14 and the Activity [3] was 89%.
With `CCCCCCCCCCCCCCCCNc1nc(=O)c2ncn([C@@H]3C[C@H](O)[C@@H](CO)O3)c2c(=O)[nH]1` the inhibition [4] was “inactive” and the inhibition [5] was “inactive”.
For `CCCCCCCCNc1nc(=O)c2ncn([C@@H]3O[C@H](CO)[C@@H](O)[C@H]3O)c2c(=O)[nH]1`, the inhibition [4] was “inactive” and the inhibition [5] was “inactive”.
In the case of `CCCCCCCCCCCCCCNc1nc(=O)c2ncn([C@@H]3O[C@H](CO)[C@@H](O)[C@H]3O)c2c(=O)[nH]1`, the inhibition [4] is reported as “inactive” and the inhibition [5] is reported as “inactive”.
For `CCCCCCCCCCCCCCN`, the Activity [6] was “inactive” and the Activity ([3]; Hepacivirus hominis, Huh-7) was “inactive”.
With `CCCCCCCCCCCCCCCCCCNc1nc(=O)c2ncn([C@@H]3C[C@H](O)[C@@H](CO)O3)c2c(=O)[nH]1` the Activity [7] was “Non-toxic”, the IC50 [8] was 18 µM and the inhibition [9] was “inactive”. For the same compound, the inhibition [10] was “inactive”, the Activity [1] was 99% and the “Selectivity Index” value [2] was 9.9. For the same compound, the Activity [3] was 10%, the inhibition [11] was “Active” and the IC50 [12] was 5.5 µg/mL (≈ 10 µM).
For `CCCCCCCCCCNc1nc(=O)c2ncn([C@@H]3C[C@H](O)[C@@H](CO)O3)c2c(=O)[nH]1`, the inhibition [4] was “inactive” and the inhibition [5] was “inactive”.
With `CCCCCCCCCCNc1nc(=O)c2ncn([C@@H]3O[C@H](CO)[C@@H](O)[C@H]3O)c2c(=O)[nH]1` the inhibition [4] was “inactive” and the inhibition [5] was “inactive”.
In the case of `CCCCCCCCCCCCCCNc1nc(=O)c2ncn([C@@H]3C[C@H](O)[C@@H](CO)O3)c2c(=O)[nH]1`, the inhibition [4] is reported as “inactive” and the inhibition [5] is reported as “inactive”.
With `CCCCCCCCCCCCCCCCCCN` the Activity [6] was “inactive” and the Activity ([3]; Hepacivirus hominis, Huh-7) was “inactive”.
In the case of `CCCCCCCCCCCCCCCCNc1nc(=O)c2ncn([C@@H]3O[C@H](CO)[C@@H](O)[C@H]3O)c2c(=O)[nH]1`, the inhibition [4] is reported as “inactive” and the inhibition [5] is reported as “inactive”.
For `CCCCCCCCNc1nc(=O)c2ncn([C@@H]3C[C@H](O)[C@@H](CO)O3)c2c(=O)[nH]1`, the inhibition [4] was “inactive” and the inhibition [5] was “inactive”.
In the case of `CCCCCCCCCCCCCCCCCCNc1nc(=O)c2ncn([C@@H]3O[C@H](CO)[C@@H](O)[C@H]3O)c2c(=O)[nH]1`, the Activity [7] is reported as “Non-toxic”, the IC50 [8] is reported as 16 µM and the inhibition [9] is reported as “inactive”. For the same compound, the inhibition [10] was “inactive”, the Activity [1] was 98% and the “Selectivity Index” value [2] was 10.89. For the same compound, the Activity [3] was 9%, the inhibition [11] was “Active” and the IC50 [12] was 6 µg/mL (≈ 10.6 µM).
In the case of `CCCCCCCCCCCCNc1nc(=O)c2ncn([C@@H]3O[C@H](CO)[C@@H](O)[C@H]3O)c2c(=O)[nH]1`, the inhibition [4] is reported as “inactive” and the inhibition [5] is reported as “inactive”.
